What all share (assay type): biochemical
In experiment [1] the target is phosphodiesterase isolated from rat brain. The experiment can be described thus: phosphodiesterase inhibition, enzyme isolated from rat brain. The following applies: inhibitor concentration giving 50% decrease of enzyme activity, 20 minutes incubation, read-out: 150(μmoles) rat brain. As to the method: (§1) The model experiments were performed by means of phosphodiesterase isolated from animal tissues (rat brain, cattle brain, cattle heart). […] From the test compounds a 1 mmole stock solution was prepared with aqueous hydrochloric acid solution and different amounts of the stock solution were added to the enzyme preparates corresponding to 5×10^-6, 1×10^-5 and 5×10^-5 mole/lit. of the test compound. A solution of papaverine used as reference compound is added to the enzyme preparate in an analogous manner.
(§2) The activity of the solutions of the test compound and papaverine was expressed in percents of the control (enzyme solution without any inhibitory substance, 100%).
(§3) The tests on an enzyme isolated from cattle brain and cattle heart, respectively were carried out in an analogous way.

The target of experiment [2] is phosphodiesterase isolated from cattle brain. As to the kind of experiment: phosphodiesterase inhibition, enzyme isolated from cattle brain. The following applies: inhibitor concentration giving 50% decrease of enzyme activity, 20 minutes incubation, read-out: 150(μmoles) cattle brain. The procedure: as §1, §2, §3
The target of experiment [3] is phosphodiesterase isolated from cattle heart. The experiment can be described thus: phosphodiesterase inhibition, enzyme isolated from cattle heart. The following applies: inhibitor concentration giving 50% decrease of enzyme activity, 20 minutes incubation, read-out: 150(μmoles) cattle heart. As to the method: as §1, §2, §3

Structures are written as SMILES. Structures can show the parent of a compound that is named as a salt.

Take `CCC12C=CCN3CCc4c(n(c5cccc([N+](=O)[O-])c45)C(COC(C)=O)=C1)C32` (centres unmarked) [compound 886, 9-Nitro-17,18-dehydroapovincaminol acetate]: the IC50 in experiment [1] came out at 50 µM.
The same measure, in the same setting: for `CCC12C=CCN3CCc4c(n(c5cc([N+](=O)[O-])ccc45)C(COC(C)=O)=C1)C32` (centres unmarked) [compound 887, 11-nitro-17,18-dehydro-apovincaminol acetate] the value was 30 µM.
For the compound `CCC12C=CCN3CCc4c(n(c5cccc([N+](=O)[O-])c45)C(COC(=O)c4cc(OC)c(OC)c(OC)c4)=C1)C32` (centres unmarked) [compound 888, 9-Nitro-17,18-dehydroapovincaminol 3',4',5'-trimethoxybenzoate], the results for the IC50 in experiment [1], in experiment [2] and in experiment [3] were 30 µM, 10 µM and 5 µM, respectively.
As for `CCC12C=CCN3CCc4c(n(c5cc([N+](=O)[O-])ccc45)C(COC(=O)c4cc(OC)c(OC)c(OC)c4)=C1)C32` (centres unmarked) [compound 889, 11-nitro-17,18-dehydro-apovincaminol 3',4',5'-tri-methoxybenzoate], the IC50 in experiment [1] is 10 µM; in experiment [2], 5 µM; in experiment [3], 2 µM.
The matching figures for `CCC12C=C(COC(C)=O)n3c4c(c5ccccc53)CCN(CC(OC(C)=O)C1)C42` (stereo not drawn) [compound 956, 18β-Acetoxy-apovincaminol acetate]: 30 µM, 30 µM and 25 µM.
For `CCC12C=C(COC(C)=O)n3c4c(c5ccccc53)CCN(CC(O)C1)C42` (stereo not drawn) [compound 1041, 18β-Hydroxy-apovincaminol acetate] the same measures were 120 µM, 100 µM and 60 µM.
The matching figures for `CCC12C=C(COC(=O)c3cc(OC)c(OC)c(OC)c3)n3c4c(c5ccccc53)CCN(CC(O)C1)C42` (stereo not drawn) [compound 1079, 18β-Hydroxy-apovincaminol 3',4',5'-trimethoxybenzoate]: 5 µM, 5 µM and 2 µM.
On to `COc1ccc(Cc2nccc3cc(OC)c(OC)cc23)cc1OC` [papaverin hydrochloride, reference compound], for which the figures for the IC50 in experiment [1], in experiment [2] and in experiment [3] were 120 µM, 100 µM and 50 µM, respectively.

Values taken from patent US4680397A, “Apovincaminol derivative” (Richter Gedeon Vegyeszeti Gyar Rt., priority 1984, dated 1987).
